Test results published in ChEMBL document CHEMBL1201862, “PubChem BioAssay data set” (2004).
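Interpolation was linear, between the two tested concentrations surrounding the appropriate level; five concentrations were tested over 48 hours in 96-well plates. At the GI50, growth is halved.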 Active and inactive are the calls of the source. Rule as the data show it: active = GI50 up to about 1.1 µM and inactive = higher.

Key:
Assay in all cases: NCI tumour cell line growth inhibition, 48 h
M19-MEL = test system: M19-MEL
RXF 631 = test system: RXF 631
HOP-18 = test system: HOP-18
SNB-78 = test system: SNB-78
DMS-273 = test system: DMS-273
DMS-114 = test system: DMS-114
XF498 = test system: XF498
Hs-578T = test system: Hs-578T
BT-549 = test system: BT-549

Cc1ccc(Oc2ccc(C)cc2[N+](=O)[O-])cc1
GI50 (M19-MEL): 79.4 µM (inactive) | GI50 (RXF 631): > 100 µM (inactive) | GI50 (HOP-18): > 100 µM (inactive) | GI50 (SNB-78): 31.6 µM (inactive) | GI50 (DMS-273): > 100 µM (inactive) | GI50 (DMS-114): 28.4 µM (inactive) | GI50 (XF498): 0.275 µM (active)

COC(=O)C1=C(C(=O)OC)SC(=C(/N=N/c2ccccc2)c2ccccc2)S1
GI50 (M19-MEL): > 100 µM (inactive) | GI50 (RXF 631): > 100 µM (inactive) | GI50 (HOP-18): > 100 µM (inactive) | GI50 (SNB-78): > 100 µM (inactive) | GI50 (DMS-273): > 100 µM (inactive)

O=P(c1ccccc1)(c1ccccc1)C1CC=C(c2ccccc2)C2(CCCC2)C1 (stereo unspecified)
GI50 (M19-MEL): 43.7 µM (inactive) | GI50 (RXF 631): 40.1 µM (inactive) | GI50 (HOP-18): 25.6 µM (inactive) | GI50 (SNB-78): > 100 µM (inactive) | GI50 (DMS-273): > 100 µM (inactive) | GI50 (DMS-114): 34.4 µM (inactive) | GI50 (XF498): 65.5 µM (inactive)

COC(=O)[C@]1(C)CCCC2(C)C1CC[C@H]1C=C(C)[C@H]3CCC12C3 (stereo partly specified)
GI50 (RXF 631): > 100 µM (inactive) | GI50 (SNB-78): > 100 µM (inactive) | GI50 (DMS-114): 86.9 µM (inactive) | GI50 (XF498): > 100 µM (inactive)

CS(=O)(=O)OCCN(CCOS(C)(=O)=O)c1ccc(/C=N/c2ccc(-c3csc(COc4ccccc4)n3)cc2)cc1
GI50 (Hs-578T): 15.1 µM (inactive) | GI50 (M19-MEL): 13.4 µM (inactive) | GI50 (HOP-18): 5.25 µM (inactive) | GI50 (BT-549): 10.7 µM (inactive) | GI50 (SNB-78): 18.7 µM (inactive) | GI50 (DMS-273): 0.46 µM (active) | GI50 (DMS-114): 5.85 µM (inactive) | GI50 (XF498): 2.12 µM (inactive)

Cc1ccc(NC(=O)/C(CC(=O)c2c[n+]([O-])c3ccccc3[n+]2[O-])=N\NC(=O)C[n+]2ccccc2)cc1
GI50 (M19-MEL): > 100 µM (inactive) | GI50 (RXF 631): > 100 µM (inactive) | GI50 (HOP-18): > 100 µM (inactive) | GI50 (SNB-78): > 100 µM (inactive) | GI50 (DMS-273): > 100 µM (inactive) | GI50 (DMS-114): > 100 µM (inactive) | GI50 (XF498): > 100 µM (inactive)

COc1nc(N)c(NC(C)=O)c(=O)n1C
GI50 (RXF 631): > 100 µM (inactive) | GI50 (HOP-18): > 100 µM (inactive) | GI50 (SNB-78): > 100 µM (inactive) | GI50 (DMS-273): > 100 µM (inactive) | GI50 (DMS-114): > 100 µM (inactive) | GI50 (XF498): > 100 µM (inactive)

CC(=O)N[C@@H]1C(O)CN2C(=O)C(=O)O[C@H](C(O)CO)[C@@H]12 (stereo partly specified)
GI50 (M19-MEL): > 100 µM (inactive) | GI50 (RXF 631): > 100 µM (inactive) | GI50 (HOP-18): 74 µM (inactive) | GI50 (SNB-78): > 100 µM (inactive) | GI50 (DMS-273): > 100 µM (inactive) | GI50 (DMS-114): > 100 µM (inactive) | GI50 (XF498): > 100 µM (inactive)

CCOC(=O)Nc1ccc(S(=O)(=O)OC)cc1.CCOC(=O)Nc1ccc(S(=O)(=O)OC)cc1.NC(=O)NCCO
GI50 (M19-MEL): 29.9 µM (inactive) | GI50 (RXF 631): 46.5 µM (inactive) | GI50 (HOP-18): 49.4 µM (inactive) | GI50 (SNB-78): > 50 µM (inactive) | GI50 (DMS-273): 29.2 µM (inactive) | GI50 (DMS-114): 22.1 µM (inactive)

C/C=C1/C(=Cc2[nH]c(C=c3[nH]/c(=C/C4=NC(=O)C(CC)=C4C)c(C)c3CCC(=O)O)c(CCC(=O)O)c2C)NC(=O)C1C (stereo unspecified)
GI50 (M19-MEL): 10.9 µM (inactive) | GI50 (RXF 631): 6.65 µM (inactive) | GI50 (HOP-18): 30.2 µM (inactive) | GI50 (SNB-78): 11.5 µM (inactive) | GI50 (DMS-273): 5.45 µM (inactive) | GI50 (DMS-114): 19.1 µM (inactive) | GI50 (XF498): 8.63 µM (inactive)

Cc1nc(-n2nc(-c3ccccc3)cc2-c2ccccc2)sc1C(=O)/C=C/c1ccc(Cl)c(Cl)c1
GI50 (M19-MEL): 51.6 µM (inactive) | GI50 (RXF 631): 8.26 µM (inactive) | GI50 (SNB-78): 15.6 µM (inactive) | GI50 (DMS-273): 32.2 µM (inactive) | GI50 (DMS-114): 33.3 µM (inactive) | GI50 (XF498): 17.1 µM (inactive)

Cc1ccc(/C=C/C(=O)c2ccc([N+](=O)[O-])cc2)cc1
GI50 (M19-MEL): > 100 µM (inactive) | GI50 (RXF 631): > 100 µM (inactive) | GI50 (HOP-18): > 100 µM (inactive) | GI50 (SNB-78): > 100 µM (inactive) | GI50 (DMS-273): > 100 µM (inactive) | GI50 (XF498): > 100 µM (inactive)

CN1C(=N\S(=O)(=O)c2ccc(Cl)cc2)/C(=N/N=P(c2ccccc2)(c2ccccc2)c2ccccc2)c2ccccc21
GI50 (M19-MEL): > 100 µM (inactive) | GI50 (RXF 631): > 100 µM (inactive) | GI50 (SNB-78): > 100 µM (inactive) | GI50 (DMS-273): > 100 µM (inactive) | GI50 (XF498): > 100 µM (inactive)
